This note sets out measurements from patent US5863776A, “Method of preparing apoenzyme” (Research Development Foundation, priority 1996, dated 1999).

Experiment [1] addresses T1, MAO B (Homo sapiens, UniProt P27338).
T1 construct: expressed in transfected cells; host or cells: COS-7 (African green monkey), riboflavin-containing (Rib+) or riboflavin-depleted (Rib-), transient electroporation
T1 sequence (P27338 1-520): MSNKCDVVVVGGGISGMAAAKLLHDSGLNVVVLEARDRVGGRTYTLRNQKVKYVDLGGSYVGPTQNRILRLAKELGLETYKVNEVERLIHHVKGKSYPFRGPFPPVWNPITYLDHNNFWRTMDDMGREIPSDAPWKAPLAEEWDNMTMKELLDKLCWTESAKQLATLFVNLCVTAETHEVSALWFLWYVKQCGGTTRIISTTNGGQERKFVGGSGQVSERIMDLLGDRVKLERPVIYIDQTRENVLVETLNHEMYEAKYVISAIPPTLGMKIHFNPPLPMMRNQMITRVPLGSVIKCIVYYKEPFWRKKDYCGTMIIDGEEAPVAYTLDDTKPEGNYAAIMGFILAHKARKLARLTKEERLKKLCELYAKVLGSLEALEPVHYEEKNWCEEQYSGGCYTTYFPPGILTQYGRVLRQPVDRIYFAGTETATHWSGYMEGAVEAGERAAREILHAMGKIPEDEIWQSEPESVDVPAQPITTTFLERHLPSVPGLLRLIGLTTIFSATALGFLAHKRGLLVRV
Description: FAD coupling in intact cells: MAO B enzymatic activity after electroporation of MAO B cDNA with cofactor into Rib^- COS-7 cells ([^14 C] benzylamine substrate). Format: cell-based. Also noted: Percent of Holo-MAO B Activity: concentration or dose not given beside the values. As to conditions: for Enzymatic Activity: cofactor added with MAO B cDNA into Rib^- COS-7 cells, 48 hours, mean ± SE, three experiments; for Percent of Holo-MAO B Activity: relative to holo-MAO B expressed in Rib^+ COS-7 cells, 2880 min; for restoration of active MAO B (in words): cofactor added with MAO B cDNA during electroporation. The protocol:
(§1) Wild-type or mutant MAO B cDNAs were transiently transfected into COS-7 cells by electroporation (23) as previously described (18). Briefly, Rib^+ - or Rib^- COS-7 cells were harvested during late log phase growth and resuspended to a concentration of 3.1×10^6 cells/ml in either riboflavin-containing or riboflavin-free medium, respectively. Wild-type or mutant MAO B cDNAs ([…]) were added to 0.8 ml of cell suspension. […] Electroporation was carried out in a Bio-Rad Gene Pulser with a setting of 250 V and 500 μF. Cells were resuspended in 15 ml of riboflavin-containing or riboflavin-free medium and incubated at 37° C. with 5% CO2. Transfected COS-7 cells were harvested at 48 hours and homogenized in a lysis solution containing 20 mM Tris-HCl, 1 mM EDTA, 0.5 mM PMSF, pH 8.0. The homogenate was diluted with an equal volume of the same buffer supplemented with 300 mM NaCl to obtain a 150 mM final NaCl concentration. Triton X-100 (Pierce) was added to the lysate to give a final concentration of 0.25%, and the samples were allowed to stir for 50 min. at 4° C. to extract MAO B from the outer mitochondrial membrane. After Triton extraction, the lysate was centrifuged at 1300×g for 5 min. at 4° C. to remove insoluble cell debris.
MAO B activity was assayed radiometrically by a modification of the method of Wurtman and Axelrod (26) as described previously (18). Briefly, the reaction mixture contained 200 μl of 50 mM sodium phosphate buffer (pH 7.4), 3.6 nmole of 55 mCi/mmol [^14 C] benzylamine hydrochloride (Amersham), 10 nmoles of unlabeled benzylamine and 10 μl of cell lysate. Samples were run in triplicate, and one out of each set was denatured with […] of 6N HCl prior to the addition of substrate to serve as an internal control. All reactions were incubated for 9 minutes at 37° C., and terminated by the addition of 25 μl of 6N HCl. The reaction product was extracted with 500 μl of toluene, and an aliquot (200 μl) of the organic phase from each sample was counted in liquid scintillation fluid (Bio-Safe) in a Beckman LB 3801 scintillation counter.
FMN or riboflavin were also capable of restoring approximately 75% of MAO B holoenzyme activity. However, only 40% of MAO B holoenzyme activity was obtained by the addition of 8α-hydroxyriboflavin.
Various cofactors were added with MAO B cDNA into Rib^- COS7 cells

Experiment [2] deals with T1, MAO B. Description: Quantitation of expressed MAO B protein by ELISA in transfected COS-7 cells. As to conditions: cofactor added with MAO B cDNA into Rib^- COS-7 cells; 48 hours; mean ± SE, three experiments. In kind it is cell-based. Also on record: MAO B Expressed: unit not given here. As for the experimental part: Total protein concentrations of samples containing MAO B holoenzyme, apoenzyme, or variant MAO Bs were determined by a MicroBCA kit (Pierce). All samples were then adjusted to equal protein concentrations and assayed for MAO B protein by ELISA using a modification of the method of Yeomanson and Billett (25) as described previously (18).
MAO B cDNA was expressed sequentially at different time intervals in these cells during this riboflavin depletion process (FIG. 2). Each data point in FIG. 2 represents an individual expression assay. For each assay, a sample of COS-7 cells grown in riboflavin-free medium were transfected with MAO B cDNA via electroporation. Concurrently, Rib^+ COS-7 cells were transfected with MAO B cDNA to serve as a control. Following incubation for 48 hours, the cells were homogenized and assays were performed to determine protein concentration, MAO B concentration by ELISA using polyclonal antibodies, and MAO B activity using [^14 C] benzylamine.
An equal amount of MAO B cDNA (15 μg) was expressed in both types of […]
For orientation: ELISA stands for enzyme-linked immunosorbent assay.

Experiment [3] relates to MAO B. Description: [^14 C] FAD incorporation into wild-type or mutant MAO B in Rib^- COS-7 cells (immunoprecipitation, fluorography). As to conditions: about 59 kDa; equal MAO B concentrations. In kind it is binding, human. The protocol: Mutagenesis was carried out by the method of Deng and Nickoloff (22) using a Transformer Site-directed Mutagenesis kit (Clontech). Glu in position 34 was replaced with Asp (E34D), Gln (E34Q), or Ala (E34A), and Val in position 10 was replaced with Ile (V10I) as described by Kwan et al. (18).
as §1
Transfected Rib^+ - or Rib^- COS-7 cells were homogenized, and extracted with 0.25% Triton X-100 for 50 minutes at 4° C. The cell lysates were centrifuged at 1300×g for 5 minutes, and an aliqout of each supernatant was analyzed for MAO B concentration by ELISA. All supernatants were then adjusted to equal MAO B concentration and incubated with polyclonal goat anti-MAO B antibody (10 μg) overnight at 4° C. Protein-G Sepharose beads (Pierce) were added (50 μl) and incubation was continued for 3 hours. The protein-G Sepharose/goat antibody/MAO B immmunocomplex was collected by centrifugation at 10,000×g for 20 seconds and washed 6 times with 150 μl of 20 mM Tris buffer, pH 8.0. The immunocomplex was then dissolved in SDS-PAGE sample buffer and analyzed by Western blot or fluorography.
The immunoprecipitated proteins (obtained as described above) were subjected to electrophoresis in a 10% SDS-polyacrylamide gel and examined by Western blotting as previously described (18). The immunoprecipitated proteins (obtained as described above) were subjected to electrophoresis in a 10% SDS-polyacrylamide gel. The SDS-PAGE gel was fixed by soaking in 7% acetic acid, 10% methanol, 83% H2 O for 1 hour, and then processed for fluorography as described by Bonner and Laskey (27). The dried gel was exposed to Kodak X-OMAT AR film at -80° C. for 2 weeks.
The expressed wild-type and variant MAO Bs were adjusted to equal concentrations using ELISA before immunoprecipitation, and then analyzed by fluorography. The amount of incorporation of [^14 C] […] FAD was incorporated into the enzyme.

As for `Cc1cc2nc3c(=O)[nH]c(=O)nc-3n(C[C@H](O)[C@H](O)[C@H](O)CO)c2cc1CO` [8α-OH Rib, 8α-hydroxyriboflavin], the “MAO B activity relative to that obtained with riboflavin” value in experiment [1] (Rib^- COS-7 cells) is reported as “about one half of that obtained with the addition of riboflavin”. In addition, in experiment [1], the “Enzymatic Activity” value is 0.45 ± 0.01 μmol benzylamine/minute/mg MAO and the “Percent of Holo-MAO B Activity” value stood at 39.8%. Moreover, the “Percent of Holo-MAO B Activity” value in experiment [1] (listed as 8α-hydroxyriboflavin) is 40%. Also, in experiment [2], the “MAO B Expressed” value worked out at 0.95 ± 0.08.

`Cc1cc2nc3c(=O)[nH]c(=O)nc-3n(C[C@H](O)[C@H](O)[C@H](O)COP(=O)(O)O)c2cc1C` [FMN]: in experiment [1], the “restoration of active MAO B (in words)” value is given as “equal levels of MAO B activity” and the “Enzymatic Activity” value is 0.85 ± 0.03 μmol benzylamine/minute/mg MAO. Besides, the “MAO B Expressed” value in experiment [2] came out at 0.81 ± 0.17.

`NC(=O)c1ccc[n+]([C@@H]2O[C@H](COP(=O)(O)OP(=O)(O)OC[C@H]3O[C@@H](n4cnc5c(N)ncnc54)[C@H](O)[C@@H]3O)[C@@H](O)[C@H]2O)c1` [NAD^+]: in experiment [1], the “restoration of active MAO B (in words)” value is reported as “did not yield active MAO B”, the “Enzymatic Activity” value is 0.02 ± 0.00 μmol benzylamine/minute/mg MAO and the “Percent of Holo-MAO B Activity” value is listed as 1.8%. Moreover, in experiment [2], the “MAO B Expressed” value came out at 1.14 ± 0.06.

`Cc1cc2nc3c(=O)[nH]c(=O)nc-3n(C[C@H](O)[C@H](O)[C@H](O)CO)c2cc1C` [Riboflavin, riboflavin]: in experiment [1], the “restoration of active MAO B (in words)” value is on record as “equal levels of MAO B activity”, the “Enzymatic Activity” value was 0.86 ± 0.06 μmol benzylamine/minute/mg MAO and the “Percent of Holo-MAO B Activity” value stood at 76.1%. In experiment [2], the “MAO B Expressed” value is reported as 0.90 ± 0.13.

B1: wild-type: wild-type MAO B expressed in Rib^- COS-7 cells (protein, UniProt P27338 2-520, looked up)
Amine oxidase …: SNKCDVVVVGGGISGMAAAKLLHDSGLNVVVLEARDRVGGRTYTLRNQKVKYVDLGGSYVGPTQNRILRLAKELGLETYKVNEVERLIHHVKGKSYPFRGPFPPVWNPITYLDHNNFWRTMDDMGREIPSDAPWKAPLAEEWDNMTMKELLDKLCWTESAKQLATLFVNLCVTAETHEVSALWFLWYVKQCGGTTRIISTTNGGQERKFVGGSGQVSERIMDLLGDRVKLERPVIYIDQTRENVLVETLNHEMYEAKYVISAIPPTLGMKIHFNPPLPMMRNQMITRVPLGSVIKCIVYYKEPFWRKKDYCGTMIIDGEEAPVAYTLDDTKPEGNYAAIMGFILAHKARKLARLTKEERLKKLCELYAKVLGSLEALEPVHYEEKNWCEEQYSGGCYTTYFPPGILTQYGRVLRQPVDRIYFAGTETATHWSGYMEGAVEAGERAAREILHAMGKIPEDEIWQSEPESVDVPAQPITTTFLERHLPSVPGLLRLIGLTTIFSATALGFLAHKRGLLVRV
On to B1, for which the “[^14 C] FAD incorporation (band on fluorogram)” value in experiment [3] was “dark band”.

B2: V10I: control variant, Val in position 10 replaced with Ile (protein, UniProt P27338 2-520, looked up, variant V10I)
Amine oxidase …: SNKCDVVVIGGGISGMAAAKLLHDSGLNVVVLEARDRVGGRTYTLRNQKVKYVDLGGSYVGPTQNRILRLAKELGLETYKVNEVERLIHHVKGKSYPFRGPFPPVWNPITYLDHNNFWRTMDDMGREIPSDAPWKAPLAEEWDNMTMKELLDKLCWTESAKQLATLFVNLCVTAETHEVSALWFLWYVKQCGGTTRIISTTNGGQERKFVGGSGQVSERIMDLLGDRVKLERPVIYIDQTRENVLVETLNHEMYEAKYVISAIPPTLGMKIHFNPPLPMMRNQMITRVPLGSVIKCIVYYKEPFWRKKDYCGTMIIDGEEAPVAYTLDDTKPEGNYAAIMGFILAHKARKLARLTKEERLKKLCELYAKVLGSLEALEPVHYEEKNWCEEQYSGGCYTTYFPPGILTQYGRVLRQPVDRIYFAGTETATHWSGYMEGAVEAGERAAREILHAMGKIPEDEIWQSEPESVDVPAQPITTTFLERHLPSVPGLLRLIGLTTIFSATALGFLAHKRGLLVRV
B2: the “[^14 C] FAD incorporation (band on fluorogram)” value in experiment [3] is reported as “dark band”.
